The source made the active and inactive calls. The rule behind the calls is not given here.
Key:
L02 [1] = assay: Cytoprotection against H2O2 induced cytotoxicity in human LO2 cells assessed as increase in cell viability preincubated for 24 hrs followed by H2O2 addition measured after 6 hrs by CCK-8 assay; type: functional, cell-based
[2] = Efflux ratio of apparent permeability across basolateral to apical side over apical to basolateral side in human Caco2 cells at 10 uM after 1.5 hrs by LC-MS/MS analysis; type: ADME, cell-based; details: Caco-2
[3] = Terminal half life in Sprague-Dawley rat at 20 mg/kg, po by LC-MS/MS analysis; type: ADME, organism-based; details: in vivo, read-out: beta t1/2 (converted)
[4] = Cmax in Sprague-Dawley rat at 10 mg/kg, iv or 20 mg/kg, po by LC-MS/MS analysis; type: ADME, organism-based; details: in vivo
L02 [5] = assay: Cytoprotection against APAP induced cytotoxicity in human LO2 cells assessed as decrease in MDA level at 100 mmol after 15 mins by lipid oxidation assay; type: functional, cell-based
[6] = Apparent permeability across apical to basolateral side in human Caco2 cells at 10 uM after 1.5 hrs by LC-MS/MS analysis; type: ADME, cell-based; details: Caco-2
[7] = Apparent permeability across basolateral to apical side in human Caco2 cells at 10 uM after 1.5 hrs by LC-MS/MS analysis; type: ADME, cell-based; details: Caco-2
[8] = Oral bioavailability in Sprague-Dawley rat at 20 mg/kg by LC-MS/MS analysis; type: ADME, organism-based; details: in vivo
[9] = AUC in Sprague-Dawley rat at 10 mg/kg, iv or 20 mg/kg, po by LC-MS/MS analysis; type: ADME, organism-based; details: in vivo
L02 [10] = assay: Cytoprotection against APAP induced cytotoxicity in human LO2 cells assessed as increase in cell viability preincubated for 24 hrs followed by […] hrs by CCK-8 assay; type: functional, cell-based
L02 [11] = assay: Cytoprotection against H2O2 induced cytotoxicity in human LO2 cells assessed as decrease in MDA level at 100 mmol after 15 mins by lipid oxidation assay; type: functional, cell-based
L02 [12] = assay: Cytotoxicity against human LO2 cells assessed as reduction in cell viability after 24 hrs by CCK-8 assay; type: cell-based; details: l02, 24 h
[13] = Oral bioavailability in human; type: ADME, organism-based; details: in vivo
[14] = Drug excretion in iv dosed human; type: ADME, organism-based; details: in vivo, read-out: Drug excretion
[15] = Terminal half life in iv dosed human plasma; type: ADME, organism-based; details: read-out: beta t1/2 (converted)

Structure (SMILES)	Activity (L02 [1])	Activity (L02 [11])	also measured
COC(=O)[C@H](CSC)NC(=O)c1ccccc1	inactive	–	–
CSC[C@H](NC(=O)c1ccccc1)C(=O)NC1CCCCC1	Active	–	–
CSC[C@H](NC(=O)c1ccccc1)C(=O)Nc1ccccc1	Active	–	–
CSC[C@H](NC(C)=O)C(=O)NC1CCCCC1	Active	Active	efflux ratio at 1.5 h, 10 µM [2]: 1.11; half-life [3]: 5.62 h; Cmax [4]: 2140 ng/mL; Activity (L02 [5]): Active; Papp A→B at 1.5 h, 10 µM [6]: 19.7 ×10⁻⁶ cm/s; Papp B→A at 1.5 h, 10 µM [7]: 21.8 ×10⁻⁶ cm/s; bioavailability [8]: 52.8%; AUC [9]: 3080 ng·h/mL; Activity (L02 [10]): Active
CSC[C@H](NC(C)=O)C(=O)OC(C)(C)C	inactive	–	Activity (L02 [12]): Toxic
CSC[C@H](NC(=O)C1CCCCC1)C(=O)OC(C)(C)C	inactive	–	Activity (L02 [12]): Toxic
COC(=O)[C@H](CSC)NC(=O)c1ccc(F)cc1	inactive	–	–
COC(=O)[C@H](CSC)NC(=O)C1CCCCC1	inactive	–	–
CNC(=O)[C@H](CSC)NC(=O)C1CCCCC1	Active	Active	–
CSC[C@H](NC(C)=O)C(=O)O	Active	Active	–
CCC(=O)N[C@@H](CSC)C(=O)Nc1ccccc1	Active	–	–
CNC(=O)[C@H](CSC)NC(=O)c1ccccc1	Active	inactive	–
CC(=O)N[C@@H](CS)C(=O)O [ACETYLCYSTEINE]	–	Active	bioavailability [13]: < 5%; dose excreted [14]: 30%; Activity (L02 [5]): Active; Papp A→B at 1.5 h, 10 µM [6]: < 1.09 ×10⁻⁶ cm/s; Papp B→A at 1.5 h, 10 µM [7]: < 0.61 ×10⁻⁶ cm/s; half-life [15]: 5.6 h
CSC[C@H](NC(=O)c1ccc(F)cc1)C(=O)OC(C)(C)C	inactive	–	Activity (L02 [12]): Toxic
CCC(=O)N[C@@H](CSC)C(=O)OC	inactive	–	–
CCC(=O)N[C@@H](CSC)C(=O)OC(C)(C)C	inactive	–	Activity (L02 [12]): Toxic
CSC[C@H](NC(=O)c1ccccc1)C(=O)OC(C)(C)C	inactive	–	Activity (L02 [12]): Toxic
CSC[C@H](NC(C)=O)C(=O)Nc1ccccc1	Active	Active	Activity (L02 [5]): Active; Activity (L02 [10]): inactive
CSC[C@H](NC(=O)C1CCCCC1)C(=O)O	Active	Active	–
COC(=O)[C@H](CSC)NC(C)=O	inactive	–	–
CCC(=O)N[C@@H](CSC)C(=O)NC	Active	–	–
CSC[C@H](NC(=O)c1ccc(F)cc1)C(=O)O	Active	Active	–
CCC(=O)N[C@@H](CSC)C(=O)NC1CCCCC1	Active	Active	Activity (L02 [5]): Active; Activity (L02 [10]): Active
CSC[C@H](NC(=O)c1ccccc1)C(=O)O	Active	Active	–
CCC(=O)N[C@@H](CSC)C(=O)O	Active	Active	–

From ChEMBL document CHEMBL4261569, “Identification of novel N-acetylcysteine derivatives for the treatment of hepatocellular injury” (Medchemcomm, 2017)
